Patent US7235534B2, “Antisense strategy to modulate estrogen receptor response (ER α and/or ER β )” (Institut de Cardiologie de Montreal, priority 2001, dated 2007)

How the values were obtained:
[1] = system: p42/44 MAPK; test: Western blot of p42/44 MAPK phosphorylation in PSMC; type: cell-based, porcine
Description: Confluent PAEC and PSMC were starved for 7 hours in DMEM and antibiotics. Culture medium was removed, and cells were rinsed twice with ice-cold DMEM. PSMC were incubated on ice in DMEM with or without 17βE (10^−8M) for 30 min, incubated at 37° C. for 5, 10, 15 and 30 min, then brought back on ice. Cell were then rinsed with cold DMEM, incubated on ice in DMEM, bovine serum albumin (1 mg/ml), PDGF-BB (10 ng/ml) for 30 min, incubated at 37° C. for 5 min, and then brought back on ice. PAEC were incubated on ice in DMEM with or without 17βE (10^−7M) for 30 min, then incubated at 37° C. for 5, 10, 15 and 30 min and brought back on ice. […] Total proteins were prepared by the addition of 500 μl of lysis buffer containing phenylmethylsulfonyl fluoride 1 mM, leupeptin 10 μg/ml, aprotinin 30 μg/ml, and NaVO3 1 mM (Sigma). Plates were incubated at 4° C. for 30 min and scraped, and the protein concentration was determined with a Bio-Rad protein kit (Bio-Rad, Hercules, Calif.). Same protein quantity for each cell type and condition were dissolved in Laemmli's buffer, boiled for 5 min in reducing conditions, separated by a 10% gradient SDS-PAGE (Protean II kit; Bio-Rad), and transblotted onto a 0.45-μm polyvinylidene difluoride membranes (Millipore Corp., Bedford, Mass.). The membranes were blocked in 5% Blotto-TTBS (5% nonfat dry milk; Bio-Rad), 0.05% Tween 20, 0.15 M NaCl, 25 mM Tris-HCl, pH 7.5) for 1 h at room temperature with gentle agitation and incubated overnight at 4° C. in 0.5% Blotto-TTBS with the addition of an anti-phospho p42/44 MAPK or an anti-phospho p38 MAPK rabbit polyclonal antiserums (α-pp42/44; dilution of 1:10 000, and α-pp38; dilution 1:5000, New England BioLabs, Beverly, Mass.). Membranes were washed with TTBS, and incubated at room temperature with an anti-rabbit IgG antibody coupled to horseradish peroxidase (dilution 1:10 000–1:20 000, Santa Cruz Biotechnology, Santa Cruz, Calif.) in 0.5% Blotto-TTBS for 30 min. […] Kaleidoscope molecular weight and SDS-plyacrylamide gel electrophoresis broad range marker proteins (Bio-Rad) were used as standards for SDS-plyacrylamide gel electrophoresis. Digital image densitometry (PDI Bioscience, Aurora, ON) was performed on x-ray film to determine relative percentages of p42/44 and p38 MAPK phosphorylation.
Confluent PAEC and PSMC were preteated with or without antisense sequences as described above for Western Blot analysis. Cells were rinsed twice with ice-cold DMEM. PSMC and PAEC were stimulated with or without 17βE (10^−8 mol/L) as previously described (Geraldes P). […] Same quantity of protein was separated by a 10% gradient SDS-PAGE (Protean II kit; Bio-Rad), and transblotted onto a 0.45-μm polyvinylidene difluoride membranes (Millipore Corp.). […]

[2] = system: Porcine aortic endothelial cells (PAEC); test: Chemotactic assay on PAEC (modified Boyden chamber); type: cell-based
Description: Cell migration was evaluated using a modified Boyden 48-well microchamber kit (NeuroProbe, Cabin John, MD.). Near confluent EC and PSMC were rinsed with DMEM and trypsinized. Cells were resuspended in DMEM, 5% FBS, and antibiotics, and a cell count was obtained. […] ER antagonists were added 5 minutes before 17βE. Cells were harvested by trypsinization and resuspended in DMEM, 1% FBS, and antibiotics at a concentration of 5×10^5 cells/ml. […] The two sections of the system were separated by a porous polycarbonate filter (5-μm pores), pre-treated with a gelatine solution (1.5 mg/ml), and assembled. Five hours post incubation at 37° C., the nonmigrated cells were scraped with a plastic policeman, and the migrated cells were stained using a Quick-Diff solution. The filter was then mounted on a glass slide, and migrated cells were counted using a microscope adapted to a video camera to obtain a computer-digitized image.
Cell migration was evaluated using a modified Boyden 48-well microchamber kit (NeuroProbe, Cabin John, MD.). Near confluent PAEC and PSMC were rinsed with DMEM and trypsinized. Cells were resuspended in DMEM, 5% FBS, and antibiotics, and a cell count was obtained. PAEC and PSMC were seeded at 2.5×10^5 cells/well of 6-well tissue culture plates; stimulated for 24 hours in DMEM, 5% FBS, and antibiotics with or without antisense oligomers (10^−6 mol/L) and starved for 48 hours in DMEM, 0.1% FBS, and antibiotics with or without antisense oligomers (10^−6 mol/L daily) with or without 17βE (10^−8 mol/L). Cells were harvested by trypsinization and resuspended in DMEM, 1% FBS, and antibiotics at a concentration of 5×10^5 cells/mL. Fifty μL of this cell suspension with or without antisense oligomers (10^−6 mol/L) treated with or without 17βE (10^−8 mol/L) was added in the higher-chamber of the modified Boyden chamber apparatus, and the lower chamber was filled with DMEM, 1% FBS, antibiotics plus the desired concentration of agonist either 17βE (10^−8 mol/L) or platelet-derived growth factor-BB (PDGF-BB). The 2 sections of the system were separated by a porous polycarbonate filter (5-μm pores size), pretreated with a gelatine solution (1.5 mg/mL), and assembled. Five hours postincubation at 37° C., the non-migrated cells were scraped with a plastic policeman, and the migrated cells were stained using a Quick-Diff solution (Shandon Inc). The filter was then mounted on a glass slide, and migrated cells were counted using a microscope adapted to a video camera to obtain a computer-digitized image.

SMILES: C[C@]12CC[C@@H]3c4ccc(O)cc4CC[C@H]3[C@@H]1CC[C@@H]2O [17βE, 17-beta-estradiol]
- time of maximum inhibition of PDGF-BB-induced p42/44 MAPK phosphorylation ([1]; 17βE 10^−8M pretreatment, PDGF-BB 5 minutes): 30 min
- reversal of PDGF-BB-increased p42/44 MAPK phosphorylation ([1]; 17βE 10^−8 mol/L 30 minutes, Example 2): reversed
- reduction of PDGF-BB induced phosphorylation of p42/44 MAPK ([1]; 17βE for 30 min): 100%
- change in basal phosphorylation of p42/44 MAPK ([1]; substance alone, data not shown): did not observe any change
- stimulation of PAEC migration as compared to bFGF (10 ng/ml) alone ([2]; 17βE 10^−8M combined with bFGF): 121%
- induction of PAEC migration as compared to DMEM 1% ([2]; 17βE 10^−8 mol/L, 5 hours): 4.63 fold
